Measured values as given in patent US10080779B2, “Method for increasing the expression of anti-microbial peptides by keratinocytes comprising administering a composition comprising IL-17, TNF-alpha and OSM” (Universite D'Angers, priority 2004, dated 2018).

B1: IL-31: cytokine whose receptor is a heterodimer of GPL and an OSMR subunit (protein, UniProt Q6EBC2 24-164, looked up)
Interleukin-31: SHTLPVRLLRPSDDVQKIVEELQSLSKMLLKDVEEEKGVLVSQNYTLPCLSPDAQPPNNIHSPAIRAYLKTIRQLDNKSVIDEIIEHLDKLIFQDAPETNISVPTDTHECKRFILTISQQFSECMDLALKSLTSGAQQATT

Tests used:
STAT3 = STAT3 phosphorylation in NHEK (Western blot); type: cell-based, human; settings: NHEK stimulated 15 min with the cytokine
Procedure: For STAT3 and MAPK phosphorylation, NHEK were stimulated for 15 min in the presence of the indicated cytokine. Cells were lysed in SDS sample buffer (62.5 mM Tris-HCl pH 6.8, 2% SDS, 10% glycerol, 50 mM DTT, 0.1% bromophenol blue), sonicated and then submitted to SDS-PAGE and transferred onto an Immobilon membrane. The membranes were subsequently incubated overnight with the primary antibody, before being incubated with the appropriate peroxidase-labelled secondary antibody for 60 min. The reaction was visualized by chemiluminescence according to the manufacturer's instructions. Membranes were stripped in 0.1 M glycine pH 2.8 for 2 h and neutralized in 1 M Tris-HCl pH 7.6 before reblotting. For neutralizing experiments, NHEK were incubated with the appropriate antibodies for 2 h before stimulation.

NHEK [1] = experiment: Keratinocyte differentiation marker (KDM) mRNA in NHEK (RT-PCR); type: cell-based, human; settings: 24 h; for mRNA expression of CK1, DSG1, DSC1, FLG, CLSP, LOR and FABPS: single cytokines 10 ng/ml
Procedure: (§1) Normal human epidermal keratinocytes (NHEK) were obtained as previously described, from surgical samples of healthy breast skin (Boniface et al, 2005). NHEK were cultured to 80% of confluence allowing the expression of a large panel of keratinocyte differentiation markers, and then starved for 24 h in Keratinocyte SFM containing 0.03 mM Ca^2+ (Invitrogen Life Technologies, Cergy Pontoise, France) before stimulation. Confluent differentiated cells were stimulated with or without recombinant IL-17A, OSM, TNFα, IL-22 and IL-1α alone at maximum effective concentrations (reported previously around 10 ng/ml (Boniface et al, 2005 and Boniface et al, 2007)) or in combination (R&D systems Europe, Lille, France) during 2 h to 72 h for mRNA quantification. RHE were generated on polycarbonate culture inserts, from surgical samples of paediatric foreskins as previously described (Guenou et al., 2009). RHE were stimulated with or without recombinant IL-17A, OSM, TNFα, IL-22 and IL-1α alone or in combination, with or without a Janus protein Tyrosine Kinases (JAKs) inhibitor 10 μM (Calbiochem, 420099), during 24 h for mRNA quantification or during 72 h for immunohistological analysis.
(§2) NHEK, RHE and murine skin total RNA were isolated using NucleoSpin® RNA II kit (Macherey-Nagel, Hoerdt, France) and reverse-transcribed with SuperScript® II Reverse Transcriptase (Invitrogen Life Technologies) according to the manufacturer's instructions. Quantitative real time PCR was carried out using the LightCycler-FastStart DNA Master SYBR® Green I kit on LightCycler 480 (Roche Diagnostics, Meylan, France). The reaction components were 1×DNA Master Mix, and 0.5 μM of HPLC purified sense and anti-sense oligonucleotides purchased from Eurogentec (Eurogentec France, Angers, France), designed using Primer3 software. The stability of the housekeeping gene expression has been assessed by using GeNorm algorithm. […] Thus samples were normalized to G3PDH housekeeping gene and reported according to the ΔΔCT method as RNA fold increase: 2^ΔΔCT=2^ΔCT sample−ΔCT reference.

NHEK [2] = experiment: RT-QPCR of antimicrobial peptide and chemokine genes in NHEK; type: cell-based, human; settings: 10 ng/ml, 24 h
Procedure: (§3) NHEK were obtained as previously described, from surgical samples of healthy breast skin (Boniface et al, 2005). NHEK were cultured to 80% of confluence and then starved for 24 h in Keratinocyte SFM without addition of growth factors before stimulation. Cells were stimulated with or without 10 ng/ml of recombinant IL-17A, OSM, TNFα, IL-22 and IL-1α alone or in combination (R&D systems Europe, Lille, France) during 24 h for mRNA quantification or 48 h to 96 h for protein quantification.
NHEK and skin total RNA were isolated and reverse-transcribed as previously described (Boniface et al, 2005). Quantitative real time PCR was carried using the LightCycler-FastStart DNA Master SYBR® Green I kit on LightCycler 480 (Roche Diagnostics, Meylan, France). The reaction components were 1×DNA Master Mix, and 0.5 μM of HPLC purified sense and anti-sense oligonucleotides purchased from Eurogentec (Eurogentec France, Angers, France), designed using Primer3 software. Samples were normalized to three independent control housekeeping genes (G3PDH, RPL13A or ACTB for human samples and G3PDH, HMBS or B2m for mouse samples) and reported according to the ΔΔCT method as RNA fold increase: 2^ΔΔCT=2^ΔCT sample−ΔCT eference. For comparison of normal skin and psoriatic skin the REST 2008 software was used (Pfaffl et al., 2002).

RHE [3] = experiment: RHE histology and immunohistochemistry (Example 14); type: cell-based, human; settings: single cytokines, 72 h
Procedure: as §1
RHE were washed and fixed with formaldehyde solution. Fixed tissues were dehydrated with increasing ethanol concentrations, embedded in paraffin and sections were carried out using a microtome (4 μm thickness). The sections were deparaffinised, washed and incubated with hydrogen peroxide. The sections were incubated with anti-CK10 (SantaCruz, SC-23877), anti-LOR (Eurogentec, PRB-145P), anti-FLG (SantaCruz, SC-66192), anti-IVL (Biomedical Technologies, BT-601), anti-S100A7 (Clinisciences, IMG-409A) and then detected using a biotin-conjugated secondary antibody (Vector, RTU vectastain universal quick kit, PK-7800). After peroxidase-conjugated streptavidine (Vector, RTU vectastain universal quick kit, PK-7800) and peroxidase substrate addition (Dako, Substrat hyper-sensible AEC+), nuclei were counter-stained using a solution of hematoxylin. Sections were observed using a NIKON E400 microscope. The images were captured using a NIKON DS-Ril and processed with NIS-Elements 3.10 software.

NHEK [4] = experiment: Cytokine measurement by ELISA in NHEK culture supernatants; type: cell-based, human; settings: 10 ng/ml, 96 h
Procedure: as §3
Levels of BD2, BD3 and CXCL8 were determined using Human ELISA development kit (Peprotech), and CXCL1 and CXCL5 with DuoSet reagents (R&D Systems Europe).

NHEK [5] = experiment: cDNA macroarrays analysis of 36 cytokines on 154 genes in NHEK; type: cell-based, human; settings: 10 ng/ml, 24 h
Procedure: The comparison of the effects of 36 different cytokines on the expression of 154 genes of potential interest for skin physiology was performed using home-made cDNA macroarrays analysis. After cytokine stimulation, total RNA was extracted using TRIzoI® Reagent (Invitrogen life Technologies) and conventional 33P-cDNA target synthesis and hybridization were performed (Boniface et al, 2007). Genes were considered regulated if expression levels differed more than 3-fold relative to untreated control and 3-fold relative to mean background noise.

RHE [6] = experiment: KDM mRNA in reconstituted human epidermis (RT-PCR); type: cell-based; settings: 24 h
Procedure: as §1, §2

[7] = test system: normal human keratinocytes (NHEK); experiment: Cytokine cocktails on S100A7, hBD2/4, KRT10 mRNA in NHEK (RT-Q-PCR); type: cell-based; settings: NHEK 24 hrs, 1 ng/ml each
Procedure: (§4) Quantitative real time PCR was carried out using the LightCycler-FastStart DNA Master^PLUS SYBR Green I kit (Roche, Mannheim, Germany). The reaction components were 1× FastStart DNA Master^PLUS SYBR Green I and 0.5 μM of forward and reverse primers for S100A7 (forward 5′-[…]-3′ (SEQ ID No: 9) and reverse 5′-[…]-3′ (SEQ ID No: 10)), S100A8 (Pattyn, Speleman et al. 2003), S100A9 (forward 5′-[…]-3′ (SEQ ID No: 11) and reverse 5′-[…]-3′ (SEQ ID No: 12)), hBD2/4 (forward 5′-[…]-3′ (SEQ ID No: 13) and reverse 5′-[…]-3′ (SEQ ID No: 14)), KRT10 (forward 5′-[…]-3′ (SEQ ID No: 15) and reverse 5′-[…]-3′ (SEQ ID No: 16)), and hydroxymethyl-bilane synthase (HMBS) as a housekeeping gene (Vandesompele, De Preter et al. 2002). After cDNA fluorescent quantification using propidium iodide, 250 ng, 25 ng and 2.5 ng of cDNA were added as PCR template in the LightCycler glass capillaries. The cycling conditions comprised a 10 min polymerase activation at 95° C. and 50 cycles at 95° C. for 10 s, 64° C. for 5 s and 72° C. for 18 s with a single fluorescence measurement. […] A mathematical model was used to determine the relative quantification of target genes compared to HMBS reference gene (Pfaffl 2001).
To that aim, confluent normal human keratinocytes (NHEK) were treated for 24 hrs with the indicated mix of cytokines (each cytokine at 1 ng/ml final concentration). Total RNA was extracted, reverse-transcribed and the expression of the selected genes was analyzed by real-time PCR as described.

NHEK [8] = experiment: S100A7 Western blotting in NHEK (Example 13); type: cell-based, human; settings: 10 ng/ml, 96 h
Procedure: After 96 h of stimulation, NHEK lysis was performed as previously described (Boniface et al, 2005). After separation by SDS-PAGE, proteins were transferred to nitrocellulose membranes (Amersham pharmacia biotech) by electroblotting. S100A7 was detected with mouse anti-human S100A7 mAb (Imgenex, San Diego, Calif., USA) and sheep anti-mouse IgG peroxidase-conjugated polyclonal Ab (Amersham Biosciences). Bound Ab were detected by chemiluminescence (ECL Hyperfilm and ECL Plus Reagen, Amersham Biosciences Ltd).

NHEK [9] = experiment: In vitro keratinocyte migration assay; type: cell-based, human; settings: mitomycin-treated wounded NHEK; OSM 10 ng/ml, IL-31 100 ng/ml
Procedure: Keratinocytes were cultured in wells pre-coated with type I collagen (200 μg/ml, Institut Jacques Boy, Reims, France) until they reached 80% confluency. Cells were starved for 48 h in Keratinocyte SFM and then treated with 10 μg/ml of mitomycin C (Sigma) for 2 h to prevent cell proliferation. A cell-free area was created by scraping the keratinocyte monolayer with a plastic pipette tip. Keratinocytes migration to the cell-free area was evaluated after 48 h of culture in the absence or presence of EGF or OSM. Using an inverted phase contrast microscope. The number of migrating keratinocytes was counted in 4 non-overlapping fields. Values represent the mean±SEM of cells per mm^2 beyond the frontiers of the in vitro injury. Student's t test was used for statistical analysis.

NHEK [10] = experiment: RT-real time PCR of S100 mRNA in cytokine-stimulated NHEK; type: cell-based, human; settings: IL-31
Procedure: as §4

| Molecule | STAT3 tyrosine phosphorylation (P-STAT3) (STAT3) | Number of KDM whose control mRNA expression is partially restored on removal of the cytokine from M5 (NHEK [1]) [KDM] | mRNA expression of CK1, DSG1, DSC1, FLG, CLSP, LOR and FABPS (NHEK [1]) | Number of the 21 chemokine and antimicrobial peptide genes upregulated (NHEK [2]) | CK10, LOR and FLG expression (immunohistology) (RHE [3]; RHE) | IVL expression (immunohistology) (RHE [3]; RHE) | S100A7 expression (immunohistology) (RHE [3]; RHE) | RHE histology (RHE [3]) | BD3 production (NHEK [4]) | CXCL1, CXCL5, CXCL8 production, single cytokines (NHEK [4]) | Number of genes (of 154) whose expression is modified with at least a three fold increase or decrease (NHEK [5]) | Expression of KDM mRNA (CK10, CK1, LOR, FLG) (RHE [6]) | S100A7 mRNA expression (RHE [6]) | Effect of depleting the cytokine from the mix on activity of the complete cocktail [7] | S100A7 expression in NHEK (western blotting) (NHEK [8]) | BD2 production, single cytokines (NHEK [4]) | Keratinocyte migration to the cell-free area (NHEK [9]) | Expression of psoriasin and calgranulin A and B (S100A8-9) (NHEK [10]) |
| --- | --- | --- | --- | --- | --- | --- | --- | --- | --- | --- | --- | --- | --- | --- | --- | --- | --- | --- |
| LIF: leukemia inhibitory factor, cytokine of the IL-6 family | no evidence for a STAT3 activation | – | – | – | – | – | – | – | – | – | – | – | – | – | – | – | – | – |
| IL-22: recombinant cytokine IL-22 | – | 4 | downregulate mRNA expression | 14 | decreases expression of CK10, LOR and FLG | strongly | strongly induced | significant keratinocyte hyperplasia | significant increase | discrete effect | at least five genes | most active cytokines | strongly induced | did not significantly decrease the activity | – | – | – | – |
| IL-1α: recombinant cytokine IL-1α | – | 3 | minor activities | 19 | did not exhibit any activity | – | – | does not modify RHE histology | significant increase | most effective | at least five genes | – | – | did not significantly decrease the activity | most potent inducer | most potent inducers | – | – |
| B1 | recruits STAT3 signaling pathways | – | – | – | – | – | – | – | – | – | – | – | – | – | – | – | able to induce keratinocyte migration | induces expression |
